Results published in US20110011310A1, “METHOD OF MANUFACTURING A COMPOSITE BASED ON COMPLEXES OF CONTROLLED STABILITY” (UNIVERSITE DE NICE SOPHIA-ANTIPOLIS, priority 2007, published 2011).

Experiment: Thermogravimetry of the temperature of decomposition of indigo (FIGS. 3 and 6)
Type: physicochemical
Description: […] This peak is offset to around 540° C. when the mixture has been heated at 18 (unheated), 120, 180, 280 and 350° C. during production of the composite.
In addition, during the step of cleaning by heating at temperatures of 18 (unheated), 180, 280 and 320° C. for 20 minutes, a peak characteristic of the presence of indigo in the external medium is observed, as these molecules begin to decompose at 280° C. with a maximum rate at 340° C. This phenomenon is possible owing to surface interactions between the indigo and the sepiolite, which reduce the temperature of decomposition of the indigo, which in a pure product begins at 300° C. with a maximum at 390° C. However, this peak disappears after the cleaning by heating at 350° C. for 20 minutes. […] Also, at 520° C., a peak characteristic of the presence of indigo in the sepiolite tunnels is observed. This cleaning by heating step in this type of preparation enables only the molecules present in the tunnels to be preserved.

temperature of maximum rate of decomposition of indigo (indigo in the external medium of 23% indigo/sepiolite mixtures): 340 °C
temperature at which decomposition of indigo begins (indigo in the external medium of 23% indigo/sepiolite mixtures (surface interactions with sepiolite)): 280 °C
temperature of the thermogravimetric peak of indigo (indigo in the sepiolite tunnels of 23% indigo/sepiolite mixtures (FIG. 6)): around 520 °C
maximum temperature of decomposition of indigo (indigo incorporated in the sepiolite tunnels (FIG. 3)): 540 °C
maximum temperature of decomposition of indigo (native indigo (FIG. 3)): around 375 °C
temperature at which decomposition of indigo begins (pure product): 300 °C
temperature of maximum decomposition of indigo (pure product): 390 °C
SMILES: O=C1/C(=C2\Nc3ccccc3C2=O)Nc2ccccc21 [indigo]
